Measured values: patent publication US11161842B2, “Bifunctional molecules for degradation of EGFR and methods of use” (Dana-Farber Cancer Institute, Inc., priority 2016, dated 2021)
pEC50: −log10 of the molar value.

Assays:
[1] = target: T1, T790M/L858R transformed Ba/F3 cells (Homo sapiens, UniProt P00533, T790M/L858R, cells depend on it); test: Ba/F3 cell proliferation (MTS) assay, T790M/L858R; format: cell-based, murine; conditions: for pEC50: antiproliferative activity; for % control: compound at 1 μM, inhibition of growth as percent of control
T1 construct: The constructs were shuttled into the retroviral vector JP 1540 using the BD Creator™ System (BD Biosciences)
Excerpt: The EGFR mutant L858R, Del E746_A750, L858R/T790M, DelE746_A750/T790M, L858R/T790M/C797S and Del/T790M/C797S Ba/F3 cells have been previously described (Zhou, W., Ercan, D., Chen, L., Yun, C. H., Li, D., Capelletti, M., Cortot, A. B., Chirieac, L., Iacob, R. E., Padera, R., et al. “Novel mutant-selective EGFR kinase inhibitors against EGFR T790M,” Nature 462, (2009), 1070-1074). All cell lines were maintained in RPMI 1640 (Cellgro; Mediatech Inc., Herndon, Calif.) supplemented with 10% FBS 100 units/mL penicillin, 100 units/mL streptomycin, and 2 mM glutamine. L858R cells were maintained in ACL-4 media (Invitrogen, Carlsbad, Calif.) supplemented with 5% FBS, 100 units/mL penicillin, 100 units/mL streptomycin, and 2 mM glutamine. The EGFR I941R mutation was introduced via site directed mutagenesis using the Quick Change Site-Directed Mutagenesis kit (Stratagene; La Jolla, Calif.) according to the manufacturer's instructions. All constructs were confirmed by DNA sequencing. The constructs were shuttled into the retroviral vector JP 1540 using the BD Creator™ System (BD Biosciences). Ba/F3 cells were infected with retrovirus and according to standard protocols, as described previously (Zhou et al, Nature 2009). Stable clones were obtained by selection in puromycin (2 μg/ml).
Growth and inhibition of growth was assessed by MTS assay and was performed according to previously established methods (Zhou et al., Nature 2009). The MTS assay is a colorimetric method for determining the number of viable cells that is based on the bioreduction of MTS by cells to a formazan product that is soluble in cell culture medium and can be detected spectrophotometrically. Ba/F3 cells of different EGFR genotypes were exposed to treatment for 72 hours and the number of cells used per experiment determined empirically and has been previously established (Zhou et al., Nature 2009). All experimental points were set up in six wells and all experiments were repeated at least three times. […] The curves were fitted using a non-linear regression model with a sigmoidal dose response.
Compounds of Table 1 were tested at a concentration of 1 μM against T790M/L858R transformed Ba/F3 cells. The assay, as described in Example 42, measured inhibition of growth as a percent of the inhibitory activity of the control. In Table 1, A is 0<% control <25, B is 25<% control <50, C is 50<% control <75, and D is 75<% control.
Compounds of Table 2 were tested in a T790M/L858R transformed Ba/F3 cell line as described in Example 42 and the EC50 values were calculated. In Table 2, A is EC50<500 nM, B is 500 nM<EC50<1000 nM, C is 1000 nM<EC50<5000 nM, and D is 5000 nM<EC50.

[2] = target: T2, T790M/L858R/C797S transformed Ba/F3 cells (Homo sapiens, UniProt P00533, T790M/C797S/L858R, cells depend on it); test: Ba/F3 cell proliferation (MTS) assay, T790M/L858R/C797S; format: cell-based, murine; conditions: antiproliferative activity
T2 construct: The constructs were shuttled into the retroviral vector JP 1540 using the BD Creator™ System (BD Biosciences)
T2 sequence (P00533 whole entry T790M/C797S/L858R): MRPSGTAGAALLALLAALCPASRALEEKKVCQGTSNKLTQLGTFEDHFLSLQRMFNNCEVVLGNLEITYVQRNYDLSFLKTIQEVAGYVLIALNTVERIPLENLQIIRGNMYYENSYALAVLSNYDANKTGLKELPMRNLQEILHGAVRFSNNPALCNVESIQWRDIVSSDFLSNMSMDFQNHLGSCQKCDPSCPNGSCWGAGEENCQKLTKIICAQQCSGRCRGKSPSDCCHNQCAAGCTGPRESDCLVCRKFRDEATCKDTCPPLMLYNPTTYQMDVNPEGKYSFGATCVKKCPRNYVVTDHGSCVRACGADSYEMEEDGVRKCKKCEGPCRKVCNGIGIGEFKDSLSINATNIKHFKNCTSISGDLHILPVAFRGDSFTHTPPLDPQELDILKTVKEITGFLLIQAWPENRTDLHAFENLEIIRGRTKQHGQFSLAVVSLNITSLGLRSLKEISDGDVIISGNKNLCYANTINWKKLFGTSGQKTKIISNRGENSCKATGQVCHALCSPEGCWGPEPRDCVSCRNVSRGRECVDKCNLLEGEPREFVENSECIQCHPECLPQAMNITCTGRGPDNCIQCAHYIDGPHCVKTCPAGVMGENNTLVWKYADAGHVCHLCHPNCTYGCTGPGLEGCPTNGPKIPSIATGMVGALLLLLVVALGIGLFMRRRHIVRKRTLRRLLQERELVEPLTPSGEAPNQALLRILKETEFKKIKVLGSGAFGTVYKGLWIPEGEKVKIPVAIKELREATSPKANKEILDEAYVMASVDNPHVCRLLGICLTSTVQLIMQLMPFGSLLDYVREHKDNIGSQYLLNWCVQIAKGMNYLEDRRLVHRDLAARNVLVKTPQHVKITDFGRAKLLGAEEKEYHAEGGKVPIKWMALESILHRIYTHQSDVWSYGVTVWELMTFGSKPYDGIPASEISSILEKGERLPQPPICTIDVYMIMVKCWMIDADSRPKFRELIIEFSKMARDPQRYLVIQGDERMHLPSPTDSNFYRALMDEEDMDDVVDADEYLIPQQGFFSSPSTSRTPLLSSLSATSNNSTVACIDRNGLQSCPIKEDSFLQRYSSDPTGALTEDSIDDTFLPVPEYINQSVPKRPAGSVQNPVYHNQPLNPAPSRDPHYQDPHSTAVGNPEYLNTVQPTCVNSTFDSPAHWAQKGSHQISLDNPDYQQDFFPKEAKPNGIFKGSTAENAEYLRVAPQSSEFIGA

T1 sequence (P00533 whole entry T790M/L858R): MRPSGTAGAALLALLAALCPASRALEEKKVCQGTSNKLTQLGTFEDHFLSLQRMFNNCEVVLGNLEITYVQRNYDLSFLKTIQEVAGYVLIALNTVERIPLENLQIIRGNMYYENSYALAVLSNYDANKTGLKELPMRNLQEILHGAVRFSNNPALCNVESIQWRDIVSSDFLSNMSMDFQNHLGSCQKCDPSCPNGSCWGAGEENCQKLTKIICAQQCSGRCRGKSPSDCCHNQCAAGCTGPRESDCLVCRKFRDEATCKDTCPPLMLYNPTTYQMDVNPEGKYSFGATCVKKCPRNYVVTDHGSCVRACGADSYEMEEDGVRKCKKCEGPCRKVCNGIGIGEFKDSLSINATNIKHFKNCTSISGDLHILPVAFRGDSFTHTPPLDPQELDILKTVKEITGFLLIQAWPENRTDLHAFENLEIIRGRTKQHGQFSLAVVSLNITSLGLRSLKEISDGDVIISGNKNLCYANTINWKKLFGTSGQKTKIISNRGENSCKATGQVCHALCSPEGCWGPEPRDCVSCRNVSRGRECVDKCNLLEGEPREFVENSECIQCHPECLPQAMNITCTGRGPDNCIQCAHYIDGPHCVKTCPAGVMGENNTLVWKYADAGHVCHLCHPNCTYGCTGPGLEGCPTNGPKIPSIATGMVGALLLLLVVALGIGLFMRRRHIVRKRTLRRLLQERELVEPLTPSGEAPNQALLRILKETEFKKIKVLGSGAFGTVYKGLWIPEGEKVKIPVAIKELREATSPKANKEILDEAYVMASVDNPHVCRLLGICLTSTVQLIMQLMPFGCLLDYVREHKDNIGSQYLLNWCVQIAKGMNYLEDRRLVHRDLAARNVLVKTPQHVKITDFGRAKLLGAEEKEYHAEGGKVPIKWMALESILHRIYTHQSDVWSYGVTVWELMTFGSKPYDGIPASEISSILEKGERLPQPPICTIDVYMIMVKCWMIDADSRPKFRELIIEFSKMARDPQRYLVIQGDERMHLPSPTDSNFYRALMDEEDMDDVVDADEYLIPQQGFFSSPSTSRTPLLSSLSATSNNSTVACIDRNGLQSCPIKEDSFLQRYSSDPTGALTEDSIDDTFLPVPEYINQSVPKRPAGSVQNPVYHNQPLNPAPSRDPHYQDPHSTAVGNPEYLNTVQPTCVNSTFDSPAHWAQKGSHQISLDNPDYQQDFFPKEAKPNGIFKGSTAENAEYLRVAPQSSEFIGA

| Compound | pEC50 [1] | % control [1] | pEC50 [2] |
| --- | --- | --- | --- |
| O=C1CCC(N2C(=O)c3cccc(NCCOCCOCCOCCC(=O)N4CCN(c5ccc(-c6ccc7c(c6)C(=O)N(C(C(=O)Nc6nccs6)c6ccccc6)C7)cc5)CC4)c3C2=O)C(=O)N1 (centres unmarked) [Compound I-1, 2-(6-(4-(4-(3-(2-(2-(2-((2-(2,6-Dioxopiperidin-3-yl)-1,3-dioxoisoindolin-4-yl)amino)ethoxy)ethoxy)ethoxy)propanoyl)piperazin-1-yl)phenyl)-1-oxoisoindolin-2-yl)-2-phenyl-N-(thiazol-2-yl)acetamide] | > 6.30 | A (A is 0<% control <25) | 6.00 to 6.30 |
| O=C1CCC(N2C(=O)c3cccc(NCCOCCOCCC(=O)N4CCN(c5ccc(-c6ccc7c(c6)C(=O)N(C(C(=O)Nc6nccs6)c6ccccc6)C7)cc5)CC4)c3C2=O)C(=O)N1 (centres unmarked) [Compound I-7, 2-(6-(4-(4-(3-(2-(2-((2-(2,6-Dioxopiperidin-3-yl)-1,3-dioxoisoindolin-4-yl)amino)ethoxy)ethoxy)propanoyl)piperazin-1-yl)phenyl)-1-oxoisoindolin-2-yl)-2-phenyl-N-(thiazol-2-yl)acetamide] | – | B (B is 25<% control <50) | – |
| O=C1CCC(N2C(=O)c3cccc(NCCOCCC(=O)N4CCN(c5ccc(-c6ccc7c(c6)C(=O)N(C(C(=O)Nc6nccs6)c6ccccc6)C7)cc5)CC4)c3C2=O)C(=O)N1 (centres unmarked) [Compound I-8, 2-(6-(4-(4-(3-(2-((2-(2,6-Dioxopiperidin-3-yl)-1,3-dioxoisoindolin-4-yl)amino)ethoxy)propanoyl)piperazin-1-yl)phenyl)-1-oxoisoindolin-2-yl)-2-phenyl-N-(thiazol-2-yl)acetamide] | – | D (D is 75<% control) | – |
| O=C1CCC(N2C(=O)c3cccc(NCCOCCOCCOCCN4CCN(c5ccc(-c6ccc7c(c6)C(=O)N(C(C(=O)Nc6nccs6)c6cc(F)ccc6O)C7)cc5)CC4)c3C2=O)C(=O)N1 (centres unmarked) [Compound I-10, 2-(6-(4-(4-(2-(2-(2-(2-((2-(2,6-Dioxopiperidin-3-yl)-1,3-dioxoisoindolin-4-yl)amino)ethoxy)ethoxy)ethoxy)ethyl)piperazin-1-yl)phenyl)-1-oxoisoindolin-2-yl)-2-(5-fluoro-2-hydroxyphenyl)-N-(thiazol-2-yl)acetamide] | 5.30 to 6.00 | B (B is 25<% control <50) | < 5.30 |
| O=C1CCC(N2C(=O)c3cccc(NCCCCCCN4CCN(c5ccc(-c6ccc7c(c6)C(=O)N(C(C(=O)Nc6nccs6)c6cc(F)ccc6O)C7)cc5)CC4)c3C2=O)C(=O)N1 (centres unmarked) [Compound I-11, 2-(6-(4-(4-(6-((2-(2,6-Dioxopiperidin-3-yl)-1,3-dioxoisoindolin-4-yl)amino)hexyl)piperazin-1-yl)phenyl)-1-oxoisoindolin-2-yl)-2-(5-fluoro-2-hydroxyphenyl)-N-(thiazol-2-yl)acetamide] | 5.30 to 6.00 | B (B is 25<% control <50) | < 5.30 |
| O=C1CCC(N2C(=O)c3cccc(NCCCCCCCCN4CCN(c5ccc(-c6ccc7c(c6)C(=O)N(C(C(=O)Nc6nccs6)c6cc(F)ccc6O)C7)cc5)CC4)c3C2=O)C(=O)N1 (centres unmarked) [Compound I-12, 2-(6-(4-(4-(8-((2-(2,6-Dioxopiperidin-3-yl)-1,3-dioxoisoindolin-4-yl)amino)octyl)piperazin-1-yl)phenyl)-1-oxoisoindolin-2-yl)-2-(5-fluoro-2-hydroxyphenyl)-N-(thiazol-2-yl)acetamide] | 5.30 to 6.00 | B (B is 25<% control <50) | < 5.30 |
| O=C1CCC(N2C(=O)c3cccc(NCCCCCCN4CCN(c5ccc(-c6ccc7c(c6)C(=O)N(C(C(=O)Nc6nccs6)c6ccccc6)C7)cc5)CC4)c3C2=O)C(=O)N1 (centres unmarked) [Compound I-17, 2-(6-(4-(4-(6-((2-(2,6-Dioxopiperidin-3-yl)-1,3-dioxoisoindolin-4-yl)amino)hexyl)piperazin-1-yl)phenyl)-oxoisoindolin-2-yl)2-phenyl-N-(thiazol-2-yl)acetamide] | – | C (C is 50<% control <75) | – |
| O=C1CCC(N2C(=O)c3cccc(NCCCCCCCCN4CCN(c5ccc(-c6ccc7c(c6)C(=O)N(C(C(=O)Nc6nccs6)c6ccccc6)C7)cc5)CC4)c3C2=O)C(=O)N1 (centres unmarked) [Compound I-19, 2-(6-(4-(4-(8-((2-(2,6-Dioxopiperidin-3-yl)-1,3-dioxoisoindolin-4-yl)amino)octyl)piperazin-1-yl)phenyl)-1-oxoisoindolin-2-yl)-2-phenyl-N-(thiazol-2-yl)acetamide] | – | D (D is 75<% control) | – |
| O=C1CCC(N2C(=O)c3cccc(NCCOCCOCCN4CCN(c5ccc(-c6ccc7c(c6)C(=O)N(C(C(=O)Nc6nccs6)c6ccccc6)C7)cc5)CC4)c3C2=O)C(=O)N1 (centres unmarked) [Compound I-21, 2-(6-(4-(4-(2-(2-(2-((2-(2,6-Dioxopiperidin-3-yl)-1,3-dioxoisoindolin-4-yl)amino)ethoxy)ethoxy)ethyl)piperazin-1-yl)phenyl)-1-oxoisoindolin-2-yl)-2-phenyl-N-(thiazol-2-yl)acetamide] | – | C (C is 50<% control <75) | – |
| Cc1ncsc1-c1ccc(CNC(=O)[C@@H]2C[C@@H](O)CN2C(=O)[C@@H](NC(=O)CCOCCOCCOCCC(=O)N2CCN(c3ccc(-c4ccc5c(c4)C(=O)N(C(C(=O)Nc4nccs4)c4ccccc4)C5)cc3)CC2)C(C)(C)C)cc1 (stereo partly drawn) [Compound I-25, (2S,4R)-1-((2S)-2-(tert-Butyl)-4,16-dioxo-16-(4-(4-(3-oxo-2-(2-oxo-1-phenyl-2-(thiazol-2-ylamino)ethyl)isoindolin-5-yl)phenyl)piperazin-1-yl)-7,10,13-trioxa-3-azahexadecanoyl)-4-hydroxy-N-(4-(4-methylthiazol-5-yl)benzyl)pyrrolidine-2-carboxamide] | – | D (D is 75<% control) | – |
| Cc1ncsc1-c1ccc(CNC(=O)[C@@H]2C[C@@H](O)CN2C(=O)[C@@H](NC(=O)CCOCCOCCOCCC(=O)N2CCN(c3ccc(-c4ccc5c(c4)C(=O)N(C(C(=O)Nc4nccs4)c4cc(F)ccc4O)C5)cc3)CC2)C(C)(C)C)cc1 (stereo partly drawn) [Compound I-26, (2S,4R)-1-((2S)-2-(tert-Butyl)-16-(4-(4-(2-(1-(5-fluoro-2-hydroxyphenyl)-2-oxo-2-(thiazol-2-ylamino)ethyl)-3-oxoisoindolin-5-yl)phenyl)piperazin-1-yl)-4,16-dioxo-7,10,13-trioxa-3-azahexadecanoyl)-4-hydroxy-N-(4-(4-methylthiazol-5-yl)benzyl)pyrrolidine-2-carboxamide] | – | D (D is 75<% control) | – |
| CC1(N2C(=O)c3cccc(NCCOCCOCCOCCC(=O)N4CCN(c5ccc(-c6ccc7c(c6)C(=O)N(C(C(=O)Nc6nccs6)c6ccccc6)C7)cc5)CC4)c3C2=O)CCC(=O)NC1=O (centres unmarked) [Compound I-27, 2-(6-(4-(4-(3-(2-(2-(2-((2-(3-Methyl-2,6-dioxopiperidin-3-yl)-1,3-dioxoisoindolin-4-yl)amino)ethoxy)ethoxy)ethoxy)propanoyl)piperazin-1-yl)phenyl)-1-oxoisoindolin-2-yl)-2-phenyl-N-(thiazol-2-yl)acetamide] | – | D (D is 75<% control) | – |
| O=C1CCC(N2C(=O)c3cccc(N4CCN(c5ccc(-c6ccc7c(c6)C(=O)N(C(C(=O)Nc6nccs6)c6ccccc6)C7)cc5)CC4)c3C2=O)C(=O)N1 (centres unmarked) [Compound I-35] | – | D (D is 75<% control) | – |
| O=C(Nc1nccs1)C(c1ccccc1)N1Cc2ccc(-c3ccc(N4CCNCC4)cc3)cc2C1=O (centres unmarked) [TL Compd 1, 2-(1-oxo-6-(4-(piperazin-1-yl)phenyl)isoindolin-2-yl)-2-phenyl-N-(thiazol-2-yl)acetamide] | – | B (B is 25<% control <50) | – |
| O=C(Nc1nccs1)C(c1cc(F)ccc1O)N1Cc2ccc(-c3ccc(N4CCNCC4)cc3)cc2C1=O (centres unmarked) [TL Compd 2] | – | D (D is 75<% control) | – |
